The EC50 is the concentration needed to bring the measured effect to its halfway point. Read a low EC50 as a more potent agent.

One assay has as its target T1, hTRPV1 (Homo sapiens, UniProt Q8NER1).
T1 construct: expressed in transfected cells; host or cells: HEK293T
The assay can be described thus: Measurement of Ca2+ influx (Fluo-4 AM, FlexStation III) in hTRPV1-expressing cells. Format: cell-based. On the procedure: hTRPV1 was constructed by amplification of the hTRPV1 region (NCBI accession number: NG_029716.1) and cloned into pEAK10 vector (Edge Biosystems, Gaithersburg, MD, USA). The hTRPV1 construct was amplified by PCR and the nucleotide sequence of the hTRPV1 gene was confirmed by sequencing with an ABI 3130 DNA genetic analyzer (Applied Biosystems, Foster City, CA, USA). […] After 6 h, transfected cells were seeded onto 96-well black-wall plate (BD Falcon Labware, Franklin Lakes, NJ, USA) for 18–26 h prior to their use in an experiment. The ligand-induced changes on cytosolic Ca^2+ level were monitored by a FlexStation III microplate reader (Molecular Devices). Fluo-4 AM (5 µM, Molecular Probes, Eugene, OR, USA) in assay buffer was loaded to the cells in 96-well black-wall plates for 30 min at 27°C. After dye treatment, each chemical was added to each well at 17 s and changes on intracellular Ca^2+ level were monitored by relative fluorescence units (ΔRFU, Ex = 485 nm; Em = 516 nm) for 120 s. […] The responses from at least three wells receiving the same stimulus were averaged. Plots of amplitude versus concentration were fitted using the Hill equation.

Another assay concerns the target T2, hTRPA1 (Homo sapiens, UniProt O75762).
T2 construct: expressed in transfected cells
Put plainly: Measurement of Ca2+ influx (Fluo-4 AM, FlexStation III) in hTRPA1-expressing cells. The class given is cell-based. As to conditions: hTRPA1-expressing Flp-In 293 cells, Hill fit. On the procedure: Flp-In 293 cell lines stably expressing hTRPA1constructed as previously reported was a gift from the professor Takumi Misaka at University of Tokyo. The hTRPA1-expressing cells were cultured in DMEM containing 10% FBS and 0.02% hygromycin B (Invitrogen). Flp-In 293 cell lines were maintained in DMEM containing 10% FBS. All cells were incubated at 37°C in a humidified atmosphere of 5% CO2.
The ligand-induced changes on cytosolic Ca^2+ level were monitored by a FlexStation III microplate reader (Molecular Devices). Fluo-4 AM (5 µM, Molecular Probes, Eugene, OR, USA) in assay buffer was loaded to the cells in 96-well black-wall plates for 30 min at 27°C. After dye treatment, each chemical was added to each well at 17 s and changes on intracellular Ca^2+ level were monitored by relative fluorescence units (ΔRFU, Ex = 485 nm; Em = 516 nm) for 120 s. […] The responses from at least three wells receiving the same stimulus were averaged. Plots of amplitude versus concentration were fitted using the Hill equation.

The test system of assay [1] is mock-transfected HEK293T cells. The assay can be described thus: Ca2+ imaging of mock-transfected HEK293T cells (control). The class given is cell-based, human. The settings on record: single concentration. As for the experimental part:
(§1) Mock-transfected HEK293T cells, hTRPV1-expressing HEK293T cells, non-hTRPA1-expressing Flp-In 293 cells, and hTRPA1-expressing Flp-In 293 cells grown in 96-well black-wall plates were rinsed with assay buffer (130 mM NaCl, 10 mM glucose, 5 mM KCl, 2 […]2, 1.2 mM MgCl2, and 10 mM HEPES, pH 7.4) and loaded with 5 μM Fura-2 AM (Invitrogen) for 30 min at 27°C. The cells were washed with assay buffer and treated with ligands. […] The fluorescence intensities of Fura-2 excited at 340 and 380 nm were simultaneously measured at 510 nm using a computer-controlled filter changer (Lambda DG4; Sutter, San Rafael, CA, USA), an Andor Luca CCD camera (Andor Technology, Belfast, UK), and an inverted fluorescence microscope (IX-71; Olympus, Tokyo, Japan). Intracellular calcium images were recorded every 3-s for 60-s and analyzed using MetaFluor software (Molecular Devices, Sunnyvale, CA, USA).

Assay [2] has as its system non-hTRPA1-expressing Flp-In 293 cells. The assay can be described thus: Ca2+ imaging of non-hTRPA1-expressing Flp-In 293 cells (control). The class given is cell-based, human. As to conditions: comparison with hTRPA1-expressing cells. On the procedure: as §1, with “Flp-In 293 cell lines stably expressing hTRPA1constructed as previously reported was a gift from the professor […] at University of Tokyo. The hTRPA1-expressing cells were cultured in DMEM containing 10% FBS and 0.02% hygromycin B (Invitrogen). Flp-In 293 cell lines were maintained in DMEM containing 10% FBS. All cells were incubated at 37°C in a humidified atmosphere of 5% CO2. […] Mock-transfected” for “Mock-transfected”

The next assay deals with NaCl taste perception. More on the design: method as in PMID 23221408. As to conditions: NGCC 5 and 10 µM; cited from earlier work.
Assay [3] has as its system amiloride-insensitive salt taste pathway. The arrangement: method as in PMID 23221408. As to conditions: WT and TRPV1 KO mice, electrophysiological studies; cited from earlier work.

“And” between values parts separate entries of the source, which are not always exact repeats. Identical values can stand only once.

T1 sequence (Q8NER1 whole entry): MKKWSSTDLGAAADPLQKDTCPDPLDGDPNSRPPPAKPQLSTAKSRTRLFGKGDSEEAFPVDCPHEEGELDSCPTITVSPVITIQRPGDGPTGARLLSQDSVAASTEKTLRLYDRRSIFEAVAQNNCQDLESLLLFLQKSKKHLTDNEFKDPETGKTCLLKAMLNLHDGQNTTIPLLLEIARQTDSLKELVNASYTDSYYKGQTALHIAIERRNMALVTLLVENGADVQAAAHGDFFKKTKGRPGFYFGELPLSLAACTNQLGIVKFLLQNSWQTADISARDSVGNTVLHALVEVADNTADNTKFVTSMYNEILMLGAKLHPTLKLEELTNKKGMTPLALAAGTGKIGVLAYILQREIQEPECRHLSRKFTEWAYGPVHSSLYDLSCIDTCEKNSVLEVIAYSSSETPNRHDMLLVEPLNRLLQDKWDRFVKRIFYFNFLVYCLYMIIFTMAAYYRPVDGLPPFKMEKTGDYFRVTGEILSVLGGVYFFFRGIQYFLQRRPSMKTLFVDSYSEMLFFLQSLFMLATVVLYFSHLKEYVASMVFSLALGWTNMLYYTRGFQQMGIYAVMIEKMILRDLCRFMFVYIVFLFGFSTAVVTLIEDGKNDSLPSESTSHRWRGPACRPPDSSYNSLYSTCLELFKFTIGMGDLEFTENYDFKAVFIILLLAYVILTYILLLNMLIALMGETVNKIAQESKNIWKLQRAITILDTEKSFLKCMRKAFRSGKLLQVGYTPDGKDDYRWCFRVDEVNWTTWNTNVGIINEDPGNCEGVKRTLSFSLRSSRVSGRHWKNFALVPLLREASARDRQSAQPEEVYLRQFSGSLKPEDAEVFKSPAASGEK
T2 sequence (O75762 whole entry): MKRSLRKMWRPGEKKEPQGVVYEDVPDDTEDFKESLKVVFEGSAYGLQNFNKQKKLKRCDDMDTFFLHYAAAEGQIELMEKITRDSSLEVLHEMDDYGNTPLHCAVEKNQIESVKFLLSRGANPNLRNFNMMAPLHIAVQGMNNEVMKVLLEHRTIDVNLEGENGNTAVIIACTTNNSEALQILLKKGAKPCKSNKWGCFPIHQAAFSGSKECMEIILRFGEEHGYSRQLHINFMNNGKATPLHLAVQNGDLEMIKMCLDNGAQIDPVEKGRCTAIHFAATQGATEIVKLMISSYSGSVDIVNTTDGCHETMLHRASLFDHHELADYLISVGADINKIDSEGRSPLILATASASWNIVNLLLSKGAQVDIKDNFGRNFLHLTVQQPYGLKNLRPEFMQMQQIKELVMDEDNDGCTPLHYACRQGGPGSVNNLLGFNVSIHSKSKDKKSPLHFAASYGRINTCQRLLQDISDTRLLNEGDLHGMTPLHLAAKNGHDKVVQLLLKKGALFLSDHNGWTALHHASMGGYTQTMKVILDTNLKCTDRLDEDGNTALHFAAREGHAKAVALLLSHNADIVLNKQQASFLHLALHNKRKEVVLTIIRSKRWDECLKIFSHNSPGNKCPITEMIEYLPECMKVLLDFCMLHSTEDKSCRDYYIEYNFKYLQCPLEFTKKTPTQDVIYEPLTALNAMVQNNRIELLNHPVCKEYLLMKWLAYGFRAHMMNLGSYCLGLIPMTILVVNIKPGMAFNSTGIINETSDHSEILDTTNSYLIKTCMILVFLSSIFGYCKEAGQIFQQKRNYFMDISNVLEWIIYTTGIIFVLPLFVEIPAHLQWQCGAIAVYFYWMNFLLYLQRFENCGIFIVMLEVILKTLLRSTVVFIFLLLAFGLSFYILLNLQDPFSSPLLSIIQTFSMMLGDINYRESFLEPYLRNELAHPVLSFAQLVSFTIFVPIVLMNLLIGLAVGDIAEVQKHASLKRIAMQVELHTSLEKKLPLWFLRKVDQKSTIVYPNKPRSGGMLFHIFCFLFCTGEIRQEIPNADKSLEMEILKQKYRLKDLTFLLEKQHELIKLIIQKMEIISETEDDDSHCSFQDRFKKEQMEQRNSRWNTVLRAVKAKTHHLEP

As for `CC(C)=CCC/C(C)=C/CNC(=O)C1CC1` [NGCC, N-geranylcyclopropylcarboxamide], the EC50 at hTRPV1 (hTRPV1-expressing HEK293T cells, Hill fit) is 115 µM and ~115 µM; on hTRPA1, 83.7 µM. Further, at hTRPV1 (hTRPV1-expressing cells), the “increase in [Ca2+]i relative to capsaicin” value was “significantly smaller increase”. For the same compound, in assay [1], the “change in fluorescence in mock-transfected cells” value is reported as “no changes in fluorescence”. In assay [2], the “NGCC activity in non-hTRPA1-expressing Flp-In 293 cells” value is reported as “reacts specifically with hTRPA1”. Moreover, the “effect on NaCl taste in human sensory studies” value in the assay on NaCl taste perception is “significant enhancement in NaCl taste”. Further, the “effect on the amiloride-insensitive salt taste pathway” value in assay [3] is on record as “produced biphasic effects”.

The values are drawn from PMC3930709, “Selective Activation of hTRPV1 by N-Geranyl Cyclopropylcarboxamide, an Amiloride-Insensitive Salt Taste Enhancer” (PLoS ONE, 2014).
